Laboratory results published in patent US10562895B2, “Pyrroloquinoline quinone B crystal form and preparation method therefor” (ZHUCHENG HAOTIAN PHARM CO., LTD, priority 2015, dated 2020).

Experiment: hygroscopicity analysis (DVS)
Type: physicochemical
Description: The crystal form B of pyrroloquinoline quinone provided by the present invention is characterized by solid-state methods, such as an X-ray powder diffraction (XRPD), a thermogravimetric analysis (TG), a differential scanning calorimetry analysis (DSC), an infrared (IR) analysis, and a hygroscopicity analysis (DVS). A solid sample of the crystal form B of pyrroloquinoline quinone obtained in Example 1 was subjected to a hygroscopicity analysis.

hygroscopicity (solid sample obtained in Example 1, FIG. 5): low hygroscopicity
SMILES: O=C(O)c1cc(C(=O)O)c2c(n1)C(=O)C(=O)c1cc(C(=O)O)[nH]c1-2 [4,5-Dihydro-4,5-dioxo-1H-pyrrolo[2,3-f]quinoline-2,7,9-tricarboxylic acid]
water adsorption / solid form change (at a relative humidity of 85-95%, FIG. 5): adsorbed a molecule of water and was converted into a monohydrate compound
